Experimental data from ChEMBL document CHEMBL1201862, “PubChem BioAssay data set” (2004).
The source made the active and inactive calls.

How the values were obtained:
cells = assay type: functional
[1] = biological target: ATP-dependent molecular chaperone HSP82 (Candida albicans (strain WO-1) (Yeast), UniProt C4YTQ8); assay: loss of DOC-induced GRE-beta-galactosidase reporter signal, dose response, Hsp90 inhibitor project, S. cerevisiae, luminescence (AID 2400); assay type: functional, cell-based;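 further: beta-galactosidase luminescence from glucocorticoid response element reporter as proxy for Hsp90 function; inhibitor potency where signal loss means Hsp90 inhibition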
[2] = THP-1 cell cytotoxicity, dose response, cytotoxicity control for non-replicating M. tuberculosis project (AID 489025); assay type: functional
[3] = NIH-3T3 fibroblast cytotoxicity, dose response, cytotoxicity control, cell-based, fluorescence, Alamar Blue, secondary assay (AID 2327); assay type: functional;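 further: NIH-3T3 mouse fibroblasts cultured with fluconazole at 8 µg/mL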
[4] = HepG2 cell cytotoxicity, dose response, cytotoxicity control for non-replicating M. tuberculosis project (AID 489018); assay type: functional; settings: Mycobacterium tuberculosis
[5] = Vero E6 cell cytotoxicity, dose response, cytotoxicity control for non-replicating M. tuberculosis project, secondary assay (AID 492998); assay type: functional, VeroE6; settings: Vero C1008
[6] = C. albicans growth with fluconazole, confirmation, fluorescence, retest (AID 2467); assay type: functional, cell-based
[7] = biological target: Serine/threonine-protein phosphatase (Candida dubliniensis (strain CD36 / CBS 7987 / NCPF 3949 / NRRLY-17841) (Yeast), UniProt B9W6M3); assay: calcineurin pathway inhibitors in yeast reporter, dose response, S. cerevisiae, CDRE-lacZ, luminescence, secondary (AID 2388); assay type: functional, cell-based;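 further: yeast reporter cells carrying a calcineurin-responsive lacZ construct stimulated with calcium chloride; luminescent beta-galactosidase reporter signal in whole cells rather than isolated phosphatase activity; potency for inhibition where a drop in reporter signal means calcineurin blockade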
Cysteine protease ATG4B = Cysteine protease ATG4B (Homo sapiens, UniProt Q9Y4P1); assay type: functional;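 further: Fluorescence-based dose-response confirmation assay measuring inhibition of ATG4B activity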
Phospholipase A2 = Phospholipase A2 (Homo sapiens, UniProt P04054); assay type: functional;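 further: confirmatory dose-response counterscreen on phospholipase A2, testing hits that came from an ultra-high-throughput screen for ATG4B inhibitors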
MDCK [8] = assay: antiviral activity against H1N1 influenza, dose response, cell-based, strain KY136 (AID 540257); assay type: functional; settings: Canis lupus familiaris
Vero = assay: Vero E6 cell cytotoxicity, dose response, cytotoxicity control (AID 540298); assay type: functional; settings: Chlorocebus sabaeus
MDCK [9] = assay: antiviral activity against H1N1 influenza, dose response, cell-based, strain KY180 (AID 540254); assay type: functional; settings: Canis lupus familiaris
MDCK [10] = assay: MDCK cell cytotoxicity, dose response, cytotoxicity control (AID 540296); assay type: functional; settings: Canis lupus familiaris
[11] = IOSE-T80 ovarian epithelial cell cytotoxicity, dose response, cytotoxicity control for PAX8 inhibitor project, plate reader, dry powder samples (AID 743045); assay type: functional, cell-based
[12] = cytotoxicity in OV-90 ovarian cancer cells, dose response, PAX8 inhibitor project, cell-based, plate reader, dry powder, SA8 (AID 743149); assay type: functional
[13] = NIH:OVCAR-3 ovarian cancer cell cytotoxicity, dose response, PAX8 inhibitor project, plate reader, dry powder samples (AID 743044); assay type: functional, cell-based
[14] = growth suppression of PTEN-null colon cells, dose response, cell-based, HCT116 PTEN knockout (AID 1047); assay type: functional;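 further: HCT116 colon tumor cells with PTEN knocked out; cells exposed to compound for 60 hours before readout; potency for loss of cell viability measured by luminescence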
[15] = cytotoxicity in COV362 ovarian cancer cells, dose response, cytotoxicity control for PAX8 inhibitor project, cell-based, plate reader, dry powder, SA12 (AID 743144); assay type: functional
[16] = cytotoxicity in COV434 cells, dose response, cytotoxicity control for PAX8 inhibitor project, cell-based, plate reader, dry powder, SA7 (AID 743145); assay type: functional
[17] = PAX5 activity inhibitors, dose response, selectivity assay for PAX8 inhibitor project, cell-based, plate reader, dry powder samples (AID 743047); assay type: functional;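 further: HEK293 cells carrying a Pax5 driven CD19 promoter luciferase reporter; potency of inhibitors that lower reporter luminescence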
[18] = cytotoxicity in OVCAR4 cells, dose response, cytotoxicity control for PAX8 inhibitor project, cell-based, plate reader, dry powder, SA11 (AID 743150); assay type: functional; settings: OVCAR-4
[19] = growth suppression of beta-catenin-knockout colon cells, dose response, cell-based, HCT116, human colon tumor (AID 1045); assay type: functional;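 further: HCT116 colon tumor cells with beta catenin knocked out; cells exposed to compound for 60 hours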
[20] = IGROV1 ovarian cancer cell cytotoxicity, dose response, PAX8 inhibitor project, plate reader, dry powder samples (AID 743043); assay type: functional, cell-based; settings: IGROV-1
[21] = cytotoxicity dependent on PAX8, dose response, cell-based, plate reader, dry powder (AID 743049); assay type: functional
[22] = A2780 ovarian cancer cell cytotoxicity, dose response, cytotoxicity control, plate reader, dry powder samples (AID 743046); assay type: functional, cell-based
[23] = PAX2 cell-based inhibition, dose response, selectivity assay for PAX8 inhibitor project, plate reader, dry powder samples (AID 743048); assay type: functional;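 further: HEK293 cells carrying a WT1 promoter luciferase reporter driven by expressed Pax2; potency is for inhibition of Pax2 driven reporter signal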
Paired box protein Pax-8 = Paired box protein Pax-8 (Homo sapiens, UniProt Q06710); assay: inhibitors of PAX8-driven TPO luciferase reporter, dose response, RMG-I cells, cherry-pick (AID 687027); assay type: functional, cell-based;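 further: luciferase reporter driven by Pax8 target thyroperoxidase promoter measured by SteadyGlo luminescence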
[24] = biological target: T1, Microphthalmia-associated transcription factor (Homo sapiens, UniProt O75030); assay: TRPM1 promoter luciferase signal decrease, dose response, MITF inhibitor project, cell-based, SK-MEL-5, cherry-picked, set 3 (AID 493073); assay type: functional
T1 sequence (O75030 whole entry): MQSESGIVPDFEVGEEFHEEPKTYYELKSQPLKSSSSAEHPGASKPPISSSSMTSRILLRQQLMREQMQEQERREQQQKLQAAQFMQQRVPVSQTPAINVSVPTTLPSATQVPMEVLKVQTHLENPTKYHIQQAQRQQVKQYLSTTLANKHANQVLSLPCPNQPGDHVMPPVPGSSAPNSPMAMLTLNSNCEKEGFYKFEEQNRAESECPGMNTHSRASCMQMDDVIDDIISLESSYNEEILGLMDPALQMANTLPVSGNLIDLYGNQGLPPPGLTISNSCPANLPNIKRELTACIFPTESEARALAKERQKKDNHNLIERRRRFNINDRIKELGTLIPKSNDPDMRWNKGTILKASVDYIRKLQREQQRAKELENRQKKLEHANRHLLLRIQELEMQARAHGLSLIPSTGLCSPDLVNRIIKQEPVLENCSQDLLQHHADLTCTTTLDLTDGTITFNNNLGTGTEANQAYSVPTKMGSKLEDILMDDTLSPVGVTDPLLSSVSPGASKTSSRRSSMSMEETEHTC

A-375 = assay: A375 melanoma cell viability reduction, dose response, counter-screen for MITF modulator project, cherry-pick samples, set 2 (AID 540335); assay type: functional, cell-based; settings: Homo sapiens
[25] = biological target: Dual specificity protein kinase CLK1 (Homo sapiens, UniProt P49759); assay: CLK1 kinase inhibitors, off-target check, dose response, selectivity assay for Dyrk1A inhibitor project, biochemical, cherry-picked samples (AID 588811)
[26] = biological target: Dual specificity tyrosine-phosphorylation-regulated kinase 1A (Rattus norvegicus, UniProt Q63470); assay type: biochemical, Homo sapiens
Prothrombin = Prothrombin (Homo sapiens, UniProt P00734); assay: Thrombin 1536 HTS Dose Response Confirmation. [Related pubchem assays: 1046 (Thrombin 1536 HTS; hits were confirmed in this assay)]; assay type: functional
[27] = biological target: T2, Heat shock factor protein 1 (Mus musculus, UniProt P38532); assay: inhibition of MG132-induced HSE-luciferase signal, confirmation, cell-based, NIH3T3, luminescence, dose retest (AID 2382); assay type: functional;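 further: NIH3T3 fibroblasts with HSF1-driven luciferase reporter stressed by proteasome inhibitor MG132; luminescence from HSF1-driven luciferase expression after 8 hours of MG132 stress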
T2 sequence (P38532 whole entry): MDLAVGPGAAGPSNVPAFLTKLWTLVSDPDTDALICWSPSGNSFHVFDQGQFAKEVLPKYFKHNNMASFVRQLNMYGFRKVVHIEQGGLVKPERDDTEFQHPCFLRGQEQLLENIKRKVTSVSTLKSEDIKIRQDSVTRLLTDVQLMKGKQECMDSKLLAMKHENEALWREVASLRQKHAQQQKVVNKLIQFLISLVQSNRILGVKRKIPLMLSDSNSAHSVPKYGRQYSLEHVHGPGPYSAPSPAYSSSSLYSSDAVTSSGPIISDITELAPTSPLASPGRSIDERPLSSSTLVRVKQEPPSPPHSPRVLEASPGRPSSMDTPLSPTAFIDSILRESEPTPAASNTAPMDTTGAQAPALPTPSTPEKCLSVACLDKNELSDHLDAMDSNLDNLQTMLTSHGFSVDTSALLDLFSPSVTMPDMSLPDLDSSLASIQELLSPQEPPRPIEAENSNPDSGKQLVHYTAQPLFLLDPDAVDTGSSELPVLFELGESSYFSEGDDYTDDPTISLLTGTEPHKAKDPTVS

Sequence of Phospholipase A2 (P04054 whole entry): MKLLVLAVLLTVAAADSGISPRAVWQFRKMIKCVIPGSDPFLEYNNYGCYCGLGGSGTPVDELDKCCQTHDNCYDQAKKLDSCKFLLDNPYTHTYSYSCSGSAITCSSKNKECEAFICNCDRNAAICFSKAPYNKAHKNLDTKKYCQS
Sequence of Serine/threonine-protein phosphatase (B9W6M3 whole entry): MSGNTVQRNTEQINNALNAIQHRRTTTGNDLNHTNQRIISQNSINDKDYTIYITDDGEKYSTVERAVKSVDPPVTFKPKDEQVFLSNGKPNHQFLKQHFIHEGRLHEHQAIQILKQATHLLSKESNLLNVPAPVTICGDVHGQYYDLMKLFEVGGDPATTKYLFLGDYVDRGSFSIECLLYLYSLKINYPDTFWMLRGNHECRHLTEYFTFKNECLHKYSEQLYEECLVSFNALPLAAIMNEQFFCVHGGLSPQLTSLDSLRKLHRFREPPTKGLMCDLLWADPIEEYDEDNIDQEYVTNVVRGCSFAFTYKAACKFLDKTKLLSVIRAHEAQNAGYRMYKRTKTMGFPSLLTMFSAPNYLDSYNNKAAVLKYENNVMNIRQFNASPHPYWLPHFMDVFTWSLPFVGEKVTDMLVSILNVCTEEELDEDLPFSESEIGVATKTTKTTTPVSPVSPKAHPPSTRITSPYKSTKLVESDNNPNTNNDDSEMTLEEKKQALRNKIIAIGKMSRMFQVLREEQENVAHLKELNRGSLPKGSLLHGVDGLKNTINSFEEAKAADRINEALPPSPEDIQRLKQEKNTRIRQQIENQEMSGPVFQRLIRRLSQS
Sequence of Dual specificity protein kinase CLK1 (P49759 whole entry): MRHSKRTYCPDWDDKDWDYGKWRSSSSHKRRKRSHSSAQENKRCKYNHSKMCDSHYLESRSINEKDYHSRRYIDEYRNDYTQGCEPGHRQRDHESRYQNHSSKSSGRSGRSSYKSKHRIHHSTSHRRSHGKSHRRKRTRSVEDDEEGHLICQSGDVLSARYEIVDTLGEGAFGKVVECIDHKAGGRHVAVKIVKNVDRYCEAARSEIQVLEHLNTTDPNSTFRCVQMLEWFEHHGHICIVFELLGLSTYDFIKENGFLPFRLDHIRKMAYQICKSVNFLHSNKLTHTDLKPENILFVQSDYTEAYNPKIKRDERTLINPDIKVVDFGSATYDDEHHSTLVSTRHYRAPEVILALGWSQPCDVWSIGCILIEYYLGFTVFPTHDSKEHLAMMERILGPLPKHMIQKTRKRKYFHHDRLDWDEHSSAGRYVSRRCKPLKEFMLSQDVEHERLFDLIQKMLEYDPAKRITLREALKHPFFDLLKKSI
Sequence of Paired box protein Pax-8 (Q06710 whole entry): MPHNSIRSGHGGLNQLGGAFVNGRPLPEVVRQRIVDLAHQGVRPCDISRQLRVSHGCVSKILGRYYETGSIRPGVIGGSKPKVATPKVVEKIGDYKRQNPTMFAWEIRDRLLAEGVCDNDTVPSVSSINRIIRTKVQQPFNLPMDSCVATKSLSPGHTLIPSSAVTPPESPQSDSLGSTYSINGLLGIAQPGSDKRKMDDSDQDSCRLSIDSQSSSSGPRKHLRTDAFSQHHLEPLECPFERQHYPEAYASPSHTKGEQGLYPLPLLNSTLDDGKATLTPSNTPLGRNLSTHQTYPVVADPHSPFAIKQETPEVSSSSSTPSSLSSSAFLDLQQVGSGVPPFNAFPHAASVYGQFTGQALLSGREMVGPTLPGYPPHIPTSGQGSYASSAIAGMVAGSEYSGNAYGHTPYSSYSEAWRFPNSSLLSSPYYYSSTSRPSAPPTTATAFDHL
Sequence of ATP-dependent molecular chaperone HSP82 (C4YTQ8 whole entry): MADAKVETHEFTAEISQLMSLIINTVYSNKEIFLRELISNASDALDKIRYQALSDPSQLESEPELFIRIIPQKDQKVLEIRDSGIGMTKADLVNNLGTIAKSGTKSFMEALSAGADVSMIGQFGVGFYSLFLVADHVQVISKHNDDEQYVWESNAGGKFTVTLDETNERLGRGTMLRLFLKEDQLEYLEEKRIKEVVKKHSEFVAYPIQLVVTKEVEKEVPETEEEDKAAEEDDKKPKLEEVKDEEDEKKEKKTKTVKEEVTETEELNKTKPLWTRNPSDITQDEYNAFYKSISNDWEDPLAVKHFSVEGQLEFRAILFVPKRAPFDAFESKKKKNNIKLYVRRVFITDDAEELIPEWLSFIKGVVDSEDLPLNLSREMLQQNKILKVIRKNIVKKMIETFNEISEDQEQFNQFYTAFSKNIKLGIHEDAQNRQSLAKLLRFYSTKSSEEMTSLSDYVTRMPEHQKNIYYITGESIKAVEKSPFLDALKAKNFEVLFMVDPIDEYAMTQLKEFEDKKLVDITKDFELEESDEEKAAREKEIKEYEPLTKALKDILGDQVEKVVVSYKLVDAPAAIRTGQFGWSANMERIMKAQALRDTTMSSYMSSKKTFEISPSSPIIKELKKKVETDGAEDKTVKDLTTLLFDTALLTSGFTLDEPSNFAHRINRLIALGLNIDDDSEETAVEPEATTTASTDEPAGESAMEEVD
Sequence of Cysteine protease ATG4B (Q9Y4P1 whole entry): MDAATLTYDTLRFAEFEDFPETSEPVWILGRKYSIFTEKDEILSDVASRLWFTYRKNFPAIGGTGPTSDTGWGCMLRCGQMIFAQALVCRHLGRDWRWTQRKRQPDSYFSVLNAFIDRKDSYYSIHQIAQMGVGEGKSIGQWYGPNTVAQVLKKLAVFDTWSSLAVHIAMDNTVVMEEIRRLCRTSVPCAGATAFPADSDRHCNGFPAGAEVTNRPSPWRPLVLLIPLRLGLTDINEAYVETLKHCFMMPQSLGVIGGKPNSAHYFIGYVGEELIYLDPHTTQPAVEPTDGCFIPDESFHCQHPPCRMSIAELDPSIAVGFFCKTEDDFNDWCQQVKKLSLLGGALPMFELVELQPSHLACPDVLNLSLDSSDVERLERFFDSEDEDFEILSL

With `Cc1ccc(C)c(-c2nnc(NC(=O)c3ccco3)o2)c1` the IC50 (cells) was 2.58 µM (active), the EC50 [1] was > 160 µM (inactive) and the CC50 [2] was > 40 µM (active). For the same compound, the EC50 [3] was > 160 µM (inactive), the CC50 [4] was > 20 µM (active) and the CC50 [5] was 15.8 µM (active). The EC50 [6] was 0.695 µM (active) and the EC50 [7] was > 180 µM (inactive).
With `COc1ccc(C(=O)Nc2cc(C(=O)c3ccccc3)c(C)oc2=O)cc1` the IC50 (Cysteine protease ATG4B) was 11.3 µM (active) and the IC50 (Phospholipase A2) was 11.7 µM (active).
With `Cc1nnc(NC(=O)CSc2nccn2-c2cccc(C)c2C)s1` the IC50 (MDCK [8]) was 5.1 µM (active), the CC50 (Vero) was > 40 µM (active) and the IC50 (MDCK [9]) was 10.4 µM (active). The CC50 (MDCK [10]) was > 40 µM (active).
In the case of `COc1ccc(Br)cc1/C=C/C(=O)c1ccc(NC(C)=O)cc1`, the AC50 [11] is reported as 9.22 µM (active), the AC50 [12] is reported as 17.9 µM (active) and the AC50 [13] is reported as 8.78 µM (active). For the same compound, the EC50 [14] was 1.12 µM (active), the AC50 [15] was 8.41 µM (active) and the AC50 [16] was 13.6 µM (active). For the same compound, the AC50 [17] was 7.08 µM (active), the AC50 [18] was 13.7 µM (active) and the EC50 [19] was 1.04 µM (active). For the same compound, the AC50 [20] was 15 µM (active), the AC50 [21] was 11.7 µM (active) and the AC50 [22] was 17.6 µM (active). The AC50 [23] was 7.73 µM (active), the AC50 (Paired box protein Pax-8) was 3.8 µM (active) and the AC50 [24] was 4.64 µM (active). For the same compound, the AC50 (A-375) was 33.2 µM (active).
With `COc1ccc(-c2n[nH]cc2-c2ccc3c(c2)OCCO3)c(O)c1` the AC50 [25] was 8.33 µM (active), the AC50 [26] was 12 µM (active) and the IC50 (Prothrombin) was > 50 µM (not active). The EC50 [27] was 2.8 µM (active).
